# Columns and labels:
# [1] = Selectivity index, ratio of IC50 for mouse L929 cells to IC50 for human A549 cells; format: toxicity; conditions: L929 cells and A549 cells, read-out: Ratio IC50
# BXPC-3 = assay: Antiproliferative activity against human BXPC-3 cells assessed as inhibition of cell growth measured after 48 hrs by MTT assay; format: functional, cell-based; conditions: bxpc-3
# PANC-1 = assay: Antiproliferative activity against human PANC-1 cells assessed as inhibition of cell growth measured after 48 hrs by MTT assay; format: functional, cell-based; conditions: panc-1
# NCI-H460 = assay: Antiproliferative activity against human NCI-H460 cells assessed as inhibition of cell growth measured after 48 hrs by MTT assay; format: functional, cell-based; conditions: nci-h460
# HepG2 = assay: Antiproliferative activity against human HepG2 cells assessed as inhibition of cell growth measured after 48 hrs by MTT assay; format: functional, cell-based; conditions: hepg2
# NCI-H1299 = assay: Antiproliferative activity against human NCI-H1299 cells assessed as inhibition of cell growth measured after 48 hrs by MTT assay; format: functional, cell-based; conditions: nci-h1299
# HUVEC = assay: Antiproliferative activity against human HUVEC cells assessed as inhibition of cell growth measured after 48 hrs by MTT assay; format: toxicity, cell-based; conditions: huvec
# A549 [2] = assay: Induction of cell cycle arrest in human A549 cells assessed as accumulation of cells at G0/G1 phase at 0.1 uM incubated for 48 hrs by PI staining based flow cytometry analysis (reference value: 63.26%); format: functional
# A549 [3] = assay: Inhibition of colony formation in human A549 cells assessed as suppression of colony formation at 5 nM replaced with fresh medium for every 72 hrs and measured for 15 days by crystal violet staining based assay relative to control; format: functional; conditions: A549, 360 h, time 15 day
# A549 [4] = assay: Antiproliferative activity against survivin silenced human A549 cells assessed as inhibition of cell growth measured after 48 hrs by MTT assay; format: functional, cell-based; conditions: A549, 48 h
# [5] = Toxicity in BALB/c nude mouse assessed as death at 4 mg/kg, sc administered every 2 days for 14 days; format: organism-based; conditions: in vivo, 336 h, time 14 day
# [6] = Toxicity in BALB/c nude mouse assessed as dermatitis at 4 mg/kg, sc administered every 2 days for 14 days; format: organism-based; conditions: in vivo, 336 h, time 14 day
# [7] = Toxicity in BALB/c nude mouse assessed as body weight loss at 4 mg/kg, sc administered every 2 days for 14 days; format: organism-based; conditions: in vivo, 336 h, time 14 day
# [8] = target: T1, Interleukin enhancer-binding factor 3 (Homo sapiens, UniProt Q12906); assay: Binding affinity to ILF3 (unknown origin) assessed as dissociation constant at upto 1 uM by SPR method
# T1 sequence (Q12906 whole entry): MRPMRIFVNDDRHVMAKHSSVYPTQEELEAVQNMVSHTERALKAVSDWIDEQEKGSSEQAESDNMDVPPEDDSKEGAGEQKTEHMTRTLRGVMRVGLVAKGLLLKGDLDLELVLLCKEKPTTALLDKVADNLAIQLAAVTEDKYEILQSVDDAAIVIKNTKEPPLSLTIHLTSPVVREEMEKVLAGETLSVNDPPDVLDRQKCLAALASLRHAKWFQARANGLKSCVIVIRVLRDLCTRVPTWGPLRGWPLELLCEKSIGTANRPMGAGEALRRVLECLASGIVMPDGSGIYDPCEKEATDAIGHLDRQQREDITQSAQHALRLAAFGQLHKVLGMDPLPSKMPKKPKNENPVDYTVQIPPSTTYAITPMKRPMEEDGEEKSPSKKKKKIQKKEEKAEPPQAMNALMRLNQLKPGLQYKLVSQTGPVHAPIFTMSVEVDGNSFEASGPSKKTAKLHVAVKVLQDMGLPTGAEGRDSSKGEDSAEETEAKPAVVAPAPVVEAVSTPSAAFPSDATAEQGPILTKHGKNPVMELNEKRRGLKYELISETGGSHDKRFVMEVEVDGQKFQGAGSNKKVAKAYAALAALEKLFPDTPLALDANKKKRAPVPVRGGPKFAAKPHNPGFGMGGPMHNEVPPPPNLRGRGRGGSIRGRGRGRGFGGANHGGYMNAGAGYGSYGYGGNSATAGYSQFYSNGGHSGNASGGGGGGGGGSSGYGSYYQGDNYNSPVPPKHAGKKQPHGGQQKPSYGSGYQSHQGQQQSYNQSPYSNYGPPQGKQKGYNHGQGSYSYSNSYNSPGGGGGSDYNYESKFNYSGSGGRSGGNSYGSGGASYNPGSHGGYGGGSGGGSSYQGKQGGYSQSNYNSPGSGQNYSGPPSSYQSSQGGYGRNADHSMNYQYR
# [9] = Drug distribution in BALB/C nude mouse tumor xenografted with human A549 cells at 2 mg/kg measured after 2 to 6 hrs by UPLC-3Q analysis; format: ADME, organism-based, Neoplasm; conditions: in vivo, time 2-6 hrs
# [10] = Drug metabolism in BALB/C nude mouse kidney xenografted with human A549 cells at 2 mg/kg measured after 2 to 6 hrs by UPLC-3Q analysis; format: ADME, organism-based; conditions: in vivo, time 2-6 hrs
# [11] = Toxicity in BALB/c mouse assessed as morphological changes in liver at 2 to 4 mg/kg by H and E staining based analysis; format: organism-based; conditions: in vivo, dose 2-4 mg/kg
# [12] = Toxicity in BALB/c mouse assessed as morphological changes in kidney at 2 to 4 mg/kg by H and E staining based analysis; format: organism-based; conditions: in vivo, dose 2-4 mg/kg
# A549 [13] = assay: Induction of apoptosis in human A549 cells assessed as viable cells at 0.1 uM measured after 48 hrs by annexin V and PI staining based flow cytometry analysis (reference value: 93.3%); format: functional; conditions: Homo sapiens, A549, 48 h, read-out: Activity
# A549 [14] = assay: Induction of apoptosis in human A549 cells assessed as viable cells at 0.25 uM measured after 48 hrs by annexin V and PI staining based flow cytometry analysis (reference value: 93.3%); format: functional; conditions: Homo sapiens, A549, 48 h, read-out: Activity
# A549 [15] = assay: Induction of apoptosis in human A549 cells assessed as early apoptotic cells at 0.04 uM measured after 48 hrs by annexin V and PI staining based flow cytometry analysis (reference value: 0.71%); format: functional
# A549 [16] = assay: Induction of apoptosis in human A549 cells assessed as early apoptotic cells at 0.1 uM measured after 48 hrs by annexin V and PI staining based flow cytometry analysis (reference value: 0.71%); format: functional
# A549 [17] = assay: Induction of apoptosis in human A549 cells assessed as early apoptotic cells at 0.25 uM measured after 48 hrs by annexin V and PI staining based flow cytometry analysis (reference value: 0.71%); format: functional
# A549 [18] = assay: Induction of apoptosis in human A549 cells assessed as late apoptotic cells at 0.04 uM measured after 48 hrs by annexin V and PI staining based flow cytometry analysis (reference value: 4.70%); format: functional
# A549 [19] = assay: Induction of apoptosis in human A549 cells assessed as late apoptotic cells at 0.25 uM measured after 48 hrs by annexin V and PI staining based flow cytometry analysis (reference value: 4.70%); format: functional
# A549 [20] = assay: Induction of apoptosis in human A549 cells assessed as necrotic cells at 0.04 uM measured after 48 hrs by annexin V and PI staining based flow cytometry analysis (reference value: 1.47%); format: functional
# A549 [21] = assay: Induction of apoptosis in human A549 cells assessed as necrotic cells at 0.25 uM measured after 48 hrs by annexin V and PI staining based flow cytometry analysis (reference value: 1.47%); format: functional
# TE-1 = assay: cells; conditions: Homo sapiens, TE-1, 48 h
# Description: Antiproliferative activity against human TE-1 cells assessed as inhibition of cell growth measured after 48 hrs by MTT assay
smiles,measurement,setting,value
Cn1c[n+](C)c2c1C(=O)c1cc3ccccc3cc1C2=O.[I-],selectivity ratio,[1],2390
same,IC50,BXPC-3,70 nM
same,IC50,PANC-1,80 nM
same,IC50,NCI-H460,140 nM
same,IC50,HepG2,250 nM
same,IC50,NCI-H1299,510 nM
same,IC50,HUVEC,6660 nM
same,Activity,A549 [2],85.37%
same,inhibition at 0.005 µM,A549 [3],100%
same,IC50,A549 [4],980 nM
same,Activity,[5],Non-Toxic
same,Activity,[6],Non-Toxic
same,Activity,[7],Non-Toxic
same,Kd,[8],163 nM
same,Drug uptake,[9],Active
same,Drug metabolism,[10],Metabolite_Detected
same,Activity,[11],Non-Toxic
same,Activity,[12],Non-Toxic
same,viability at 0.1 µM,A549 [13],8.7%
same,viability at 0.25 µM,A549 [14],3.28%
same,Activity,A549 [15],6.08%
same,Activity,A549 [16],2.55%
same,Activity,A549 [17],2.37%
same,Activity,A549 [18],61.4%
same,Activity,A549 [19],90%
same,Activity,A549 [20],4.74%
same,Activity,A549 [21],4.32%
same,IC50,TE-1,50 nM

# Source: ChEMBL document CHEMBL5375989, “Pioneering 4,11-Dioxo-4,11-dihydro-1H-anthra[2,3-d]imidazol-3-ium Compounds as Promising Survivin Inhibitors by Targeting ILF3/NF110 for Cancer Therapy” (J Med Chem, 2023)
